The values that follow come from US12303509B2, “Compounds for the treatment of BRAF-associated diseases and disorders” (Pfizer Inc., priority 2020, dated 2025).

A word on the IC50: it is the midpoint of a concentration-inhibition curve. By efflux ratio is commonly meant the permeability from basolateral to apical divided by that in the opposite direction, in the common usage. In general, Papp refers to a coefficient for how fast a substance crosses the barrier. High values mean ready permeation, low ones poor permeation.

One data set relates to A375 cells. Briefly: Cellular phospho-ERK inhibition assay in A375 cells. As to conditions: 2 hours treatment, read-out: A357 cell IC50. In kind it is cell-based. The gist of the method:
(§1)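 A375 (DMEM) or H1755 (RPMI) cells in 10% FBS treated 2 h at 37 °C with 9-point series, 66 pM–10 μM, 0.25% DMSO. Phospho-ERK1/2 (Thr202/Tyr204) measured by In Cell Western, normalised to GAPDH and to DMSO and 10 μM binimetinib controls; IC50 by 4-parameter fit.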

Data set [1] relates to LLC-PK1 or MDCKII cell monolayer. Briefly: MDR1 LLC-PK1 and BCRP MDCKII permeability assay: permeability coefficient (Papp). Format: in vitro ADME. As to conditions: Papp, test concentration 1 μM, 2 hours incubation. From the text: (§2) Final organic concentration in the assay was 1%.
The test system of the next data set is H1755 cells. Briefly: Cellular phospho-ERK inhibition assay in H1755 cells. In kind it is cell-based. The following applies: read-out: H1755 Cell IC50. The gist of the method:
as §1

The target in data set [2] is full-length FLAG-tagged B-Raf(V600E) (Homo sapiens (Human), UniProt P15056, V600E). Briefly: BRAF V600E enzyme assay (TR-FRET competitive displacement). In kind it is binding. As to conditions: averaged IC50; TR-FRET tracer displacement, 60 min. In outline: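 Displacement of 50 nM Tracer 1710 from 5 nM full-length N-terminally FLAG-tagged B-Raf(V600E), detected by TR-FRET with 0.5 nM Eu anti-FLAG antibody, in 25 mM HEPES pH 7.4, 10 mM MgCl2, 2% DMSO; 60 min at ~22 °C. Compounds 11-point, 3-fold from 10 μM; IC50 from 4-parameter fit at 50 POC.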
full-length FLAG-tagged B-Raf(V600E), sequence (P15056 whole entry V600E): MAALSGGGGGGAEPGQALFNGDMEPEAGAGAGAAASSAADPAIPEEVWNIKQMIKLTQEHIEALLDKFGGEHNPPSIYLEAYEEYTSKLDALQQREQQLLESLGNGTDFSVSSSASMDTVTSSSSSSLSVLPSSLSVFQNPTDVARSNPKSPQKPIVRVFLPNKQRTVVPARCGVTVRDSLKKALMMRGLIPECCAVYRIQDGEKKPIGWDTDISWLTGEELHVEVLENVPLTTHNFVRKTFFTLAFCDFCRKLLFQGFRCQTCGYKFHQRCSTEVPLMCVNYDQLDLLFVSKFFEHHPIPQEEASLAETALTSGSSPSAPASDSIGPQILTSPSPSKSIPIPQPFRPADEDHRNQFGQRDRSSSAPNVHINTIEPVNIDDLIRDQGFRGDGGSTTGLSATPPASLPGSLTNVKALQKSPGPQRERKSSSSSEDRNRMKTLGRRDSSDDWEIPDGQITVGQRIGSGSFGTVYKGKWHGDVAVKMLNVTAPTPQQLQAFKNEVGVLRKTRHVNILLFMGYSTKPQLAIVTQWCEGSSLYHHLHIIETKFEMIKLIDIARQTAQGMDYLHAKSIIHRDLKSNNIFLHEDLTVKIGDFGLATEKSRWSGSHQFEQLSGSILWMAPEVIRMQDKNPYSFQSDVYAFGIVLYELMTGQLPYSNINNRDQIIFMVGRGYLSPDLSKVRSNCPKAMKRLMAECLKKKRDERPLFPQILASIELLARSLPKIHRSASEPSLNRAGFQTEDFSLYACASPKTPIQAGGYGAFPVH

Data set [3] has as its system NCI-H1666 (BRAF G466V) cells. Briefly: Proliferation assay (CellTiter-Glo) in NCI-H1666 cells. Format: cell-based. The following applies: Homo sapiens, 3-5 day incubation. The protocol: (§3) The compounds of Example 13, Example 14 and Example 126 were evaluated in a proliferation assay in two mutant BRAF Class III cell lines: NCI-H1666 (BRAF^G466V) and WM3629 cells (BRAF^D594G/NRAS^G12D). NCI-H1666 cells were obtained from the American Type Culture Collection (ATCC, Rockville, MD) and WM3629 cells were obtained from Rockland Immunochemicals (Limerick, PA). Cells were maintained in RPMI growth medium containing 10% FBS.
(§4) Cells were harvested according to standard protocols, counted, and plated onto flat-bottom, 96-well tissue culture plates (Costar #3599) at 2000-5000 cells/well in 100 μL/well of growth medium containing 10% FBS. Cells were incubated at 37° C. with 5% CO2 overnight then treated with inhibitors prepared as a 9-point, 1:3.33 fold dilution series with final compound concentrations ranging from 66 pM-10 μM and a constant DMSO concentration of 0.25%. Control wells contained 0.25% DMSO alone. After a 3-5 day incubation at 37° C., 5% CO2, cell viability was determined by adding 100 μL CellTiter-Glo® Reagent (Promega) to each well and incubated for 15 minutes at room temperature. “Day 0” controls were determined by performing CellTiter-Glo© assay on DMSO control wells at the time of compound treatment (“Day 0” control=0 POC). Luminescence was measured on a Cytation 5 plate reader (BioTek) and values were converted to POC using the following equation:
(§5) [formula] • Where: • Xmax Average DMSO Controls • Xmin Average “Day 0” DMSO Controls • IC50 values were calculated using a 4-parameter fit in XLfit software and are shown in Table A2.
In general terms: In ATP-based viability assays light output follows the ATP content of the culture.

The subject of data set [4] is WM3629 cells (BRAF D594G/NRAS G12D). The data set can be described thus: Proliferation assay (CellTiter-Glo) in WM3629 cells. In kind it is cell-based. As to conditions: 3-5 day incubation. How it is done: as §3, §4, §5
A further data set addresses P-gp (MDR1) (Homo sapiens (Human), UniProt P08183). Briefly: MDR1 LLC-PK1 permeability assay: efflux ratio. Format: in vitro ADME. The following applies: pig.
Text: as §2

The test system of data set [5] is WM3629 cells (BRAF D594G/NRAS G12D). The data set can be described thus: Cellular phospho-ERK inhibition assay in WM3629 cells. As to conditions: 1 hour treatment, read-out: IC50 WM3629 pERK. In kind it is cell-based. The protocol: (§6) The compounds of Example 13, Example 14 and Example 126 were evaluated in a phospho-ERK assay in two mutant BRAF Class III cell lines: NCI-H1666 (BRAF^G466V) and WM3629 cells (BRAF^D594G/NRAS^G12D). NCI-H1666 cells were obtained from the American Type Culture Collection (ATCC, Rockville, MD) and WM3629 cells were obtained from Rockland Immunochemicals (Limerick, PA). Cells were maintained in RPMI growth medium containing 10% FBS.
(§7) Cells were harvested according to standard protocols, counted, and plated onto flat-bottom, 96-well tissue culture plates (Costar #3599) at 2.5×10^4 cells/well in 100 μL/well of growth medium containing 10% FBS. After an overnight incubation at 37° C. with 5% CO2 cells were treated for 1 hour at 37° C., 5% CO2 with inhibitors prepared as a 9-point, 1:3.33 fold dilution series with final compound concentrations ranging from 66 pM-10 μM and a constant DMSO concentration of 0.25%. Control wells contained either 0.25% DMSO alone (uninhibited control) or 10 μM binimetinib (complete inhibition control). The levels of phosphorylated ERK were determined using an In Cell Western protocol: following compound incubation, growth medium was discarded, and cells were fixed with 0.4% formaldehyde in PBS for 20 minutes at room temperature. Cells were permeabilized with 100% methanol for 10 minutes at room temperature. Plates were washed with PBS containing 0.05% Tween-20 and blocked for 1 hour at room temperature with LI-COR Blocking Buffer (LI-COR Biosciences; Cat. #927-40000). Plates were then incubated for 2 hours at room temperature with 50 μL of a 1:400 dilution of anti-phospho-ERK1/2 (Thr202/Tyr204) (Cell Signaling; Cat. #9101) and a 1:1000 dilution of anti-GAPDH (Millipore; Cat. #MAB374) in LI-COR blocking buffer containing 0.05% Tween-20. […] Plates were analyzed by reading on an Odyssey CLx infrared scanner. […]
(§8) [formula] • Where: • Xmax d Average Uninhibited Controls • Xmin Average Complete Inhibition Controls • IC50 values were then calculated using a 4-parameter fit in XLfit software and are shown in Table A2.

The subject of data set [6] is NCI-H1666 (BRAF G466V) cells. The data set can be described thus: Cellular phospho-ERK inhibition assay in NCI-H1666 cells. Format: cell-based. The following applies: Homo sapiens, 1 hour treatment, read-out: IC50 NCI-H1666 pERK. How it is done:
as §6, §7, §8

Data set [7] has as its target BCRP (Homo sapiens (Human), UniProt Q9UNQ0). The data set can be described thus: BCRP MDCKII permeability assay: efflux ratio. The following applies: dog. In kind it is in vitro ADME.
Procedure: BCRP transfected MDCKII cells were cultured and plated according to manufacturer's recommendations. Assay conditions included with and without the BCRP-specific inhibitor, KO143, at a concentration of 0.3 μM to ascertain the contribution of BCRP to the efflux value of the test compound.
Both positive and negative controls were used to assess functionality of P-gp or BCRP efflux in the assays. […] Final organic concentration in the assay was 1%. All dosing solutions contained 10 μM lucifer yellow to monitor LLC-PK1 or MDCKII cell monolayer integrity.
For the apical to basolateral determination (A to B), 75 μL of the test article in transport buffer were added to the apical side of the individual transwells and 250 μL of basolateral media, without compound or lucifer yellow, were added to each well. For the basolateral to apical determination (B to A), 250 μL of test article in transport buffer were added to each well and 75 μL transport buffer, without compound or lucifer yellow, were added to each transwell. All tests were performed in triplicate, and each compound was tested for both apical to basolateral and basolateral to apical transport. The plates were incubated for 2 hours on a Lab-Line Instruments Titer Orbital Shaker (VWR, West Chester, PA) at 50 rpm and 37° C. with 5% CO2. All culture plates were removed from the incubator and 50 μL of media were removed from the apical and basolateral portion of each well and added to 150 μL of 1 μM labetalol in 2:1 acetonitrile (acetonitrile): H2O, v/v.
These values were accepted when found to be below 2% for apical to basolateral and 5% basolateral to apical flux across the MDR1-transfected LLC-PK1 or BCRP-transfected MDCKII cell monolayers. The plates were sealed and the contents of each well analyzed by LC-MS/MS. The compound concentrations were determined from the ratio of the peak areas of the compound to the internal standard (labetalol) in comparison to the dosing solution.
The LC-MS/MS system was comprised of an HTS-PAL autosampler (Leap Technologies, Carrboro, NC), an HP1200 HPLC (Agilent, Palo Alto, CA), and a MDS Sciex 4000 Q Trap system (Applied Biosystems, Foster City, CA). […] The total run time, including re-equilibration, for a single injection was 1.2 minutes. Mass spectrometric detection of the analytes was accomplished using the ion spray positive mode.
An efflux ratio is calculated from the mean apical to basolateral (A-B) Papp data and basolateral to apical (B-A) Papp data using the following equation: Efflux ratio=Papp(B-A)/Papp(A-B)
The nature of data set [8]: MDR1 LLC-PK1 and BCRP MDCKII permeability assay: permeability coefficient (Papp). In kind it is in vitro ADME.
Text: as §2

Data set [9] in a line: PK (free brain-to-free plasma ratio) (mouse). The following applies: male CD-1 mice, oral gavage 10 mg/kg, unbound brain-to-unbound plasma, read-out: B/P ratio (free). Format: in vivo. How it is done: The ability of representative compounds to penetrate the BBB in mice was determined by evaluating the unbound brain-to-unbound plasma (also referred to as free brain-to-free plasma) concentration ratio in male CD-1 mice.
Brain compound levels were generated from oral mouse PK dosing with typical sampling times of 2, 4, 8, 12 and 24 hours post oral gavage dosing at 10 mg/kg. Brain samples were stored at −20±5° C. prior to analysis. Concentrations of test compound in mouse brain homogenate were determined by liquid chromatography tandem mass spectrometry (LC-MS/MS) following protein precipitation with acetonitrile. A 12-point calibration curve, ranging from 0.5 to 10,000 ng/mL, was prepared in duplicate. A solution of 400 μg/mL of test compound in dimethyl sulfoxide (DMSO) was serially diluted (3-fold) in 100% DMSO, and then 2.5 μL of each standard solution was added to 100 μL of naïve male CD-1 mice brain homogenate. To mimic the extraction in the standard curve, 2.5 μL of DMSO was added to all test samples. Both calibration and test brain homogenate samples were spiked with 10 μL of an IS (1 μg/mL of a structural analog). Brain homogenate was generated by adding 0.75 mL of 4:1 water:MeOH to each brain sample followed by homogenization for 1 minute with bead beater tubes a 6 m/s using an MP Fast Prep-24®. Proteins were precipitated from 100 μL of brain homogenate sample by the addition of 300 μL of acetonitrile. Samples were vortex-mixed for 5 minutes and spun in an Allegra X-12R centrifuge (Beckman Coulter, Fullerton, CA; SX4750A rotor) for 15 min at approximately 1,500×g at 4° C. A 100 μL aliquot of each supernatant was transferred via a 550 μL Personal Pipettor (Apricot Designs, Monrovia, CA) to 96-well plates and diluted 1:1 with HPLC grade water. The resulting plates were sealed with aluminum for LC-MS/MS analysis.
Brain-to-plasma ratios were calculated using the concentration of compound measured in the brain divided by the concentration of compound measured in the plasma. Brain-to-plasma ratios were always generated from a single animal and time point. Free brain-to-free plasma ratios were calculated by multiplying the brain-to-plasma ratio by the in vitro brain homogenate free fraction divided by the in vitro plasma free fraction using the following equation: (B/P)*(Bfu/Pfu). Table C provides the free brain-to-free plasma ratios of compounds disclosed herein.

Data set [10] deals with BCRP. As to conditions: reported, Mittapalli et al.; cited from earlier work.
[11] abbreviates: Homo sapiens, A-375, A375 cells (head prints A357).
[12] abbreviates: Homo sapiens, NCI-H1755, 2 hours treatment.

Like-named read-outs stand apart in the source and are kept apart here. A value given as a limit tells only on which side of the number the result lay.

BCRP (Homo sapiens (Human), UniProt Q9UNQ0), sequence (Q9UNQ0 whole entry): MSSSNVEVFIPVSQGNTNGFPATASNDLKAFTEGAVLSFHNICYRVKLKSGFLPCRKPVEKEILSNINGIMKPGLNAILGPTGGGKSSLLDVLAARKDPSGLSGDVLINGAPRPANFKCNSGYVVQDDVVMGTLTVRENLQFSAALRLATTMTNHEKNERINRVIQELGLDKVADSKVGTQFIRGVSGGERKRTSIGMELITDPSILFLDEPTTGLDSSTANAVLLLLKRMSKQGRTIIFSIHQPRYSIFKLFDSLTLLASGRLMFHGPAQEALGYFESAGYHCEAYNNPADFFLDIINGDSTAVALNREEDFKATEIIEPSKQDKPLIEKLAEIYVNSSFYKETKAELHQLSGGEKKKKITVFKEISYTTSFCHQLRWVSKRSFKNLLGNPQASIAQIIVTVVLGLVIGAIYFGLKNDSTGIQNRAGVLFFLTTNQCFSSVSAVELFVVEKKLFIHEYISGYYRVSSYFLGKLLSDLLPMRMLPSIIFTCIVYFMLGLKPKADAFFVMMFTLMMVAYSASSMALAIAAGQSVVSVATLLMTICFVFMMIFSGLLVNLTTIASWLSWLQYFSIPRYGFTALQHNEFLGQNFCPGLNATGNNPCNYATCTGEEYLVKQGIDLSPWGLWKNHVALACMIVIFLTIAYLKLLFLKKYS
P-gp (MDR1), sequence (P08183 whole entry, species assumed): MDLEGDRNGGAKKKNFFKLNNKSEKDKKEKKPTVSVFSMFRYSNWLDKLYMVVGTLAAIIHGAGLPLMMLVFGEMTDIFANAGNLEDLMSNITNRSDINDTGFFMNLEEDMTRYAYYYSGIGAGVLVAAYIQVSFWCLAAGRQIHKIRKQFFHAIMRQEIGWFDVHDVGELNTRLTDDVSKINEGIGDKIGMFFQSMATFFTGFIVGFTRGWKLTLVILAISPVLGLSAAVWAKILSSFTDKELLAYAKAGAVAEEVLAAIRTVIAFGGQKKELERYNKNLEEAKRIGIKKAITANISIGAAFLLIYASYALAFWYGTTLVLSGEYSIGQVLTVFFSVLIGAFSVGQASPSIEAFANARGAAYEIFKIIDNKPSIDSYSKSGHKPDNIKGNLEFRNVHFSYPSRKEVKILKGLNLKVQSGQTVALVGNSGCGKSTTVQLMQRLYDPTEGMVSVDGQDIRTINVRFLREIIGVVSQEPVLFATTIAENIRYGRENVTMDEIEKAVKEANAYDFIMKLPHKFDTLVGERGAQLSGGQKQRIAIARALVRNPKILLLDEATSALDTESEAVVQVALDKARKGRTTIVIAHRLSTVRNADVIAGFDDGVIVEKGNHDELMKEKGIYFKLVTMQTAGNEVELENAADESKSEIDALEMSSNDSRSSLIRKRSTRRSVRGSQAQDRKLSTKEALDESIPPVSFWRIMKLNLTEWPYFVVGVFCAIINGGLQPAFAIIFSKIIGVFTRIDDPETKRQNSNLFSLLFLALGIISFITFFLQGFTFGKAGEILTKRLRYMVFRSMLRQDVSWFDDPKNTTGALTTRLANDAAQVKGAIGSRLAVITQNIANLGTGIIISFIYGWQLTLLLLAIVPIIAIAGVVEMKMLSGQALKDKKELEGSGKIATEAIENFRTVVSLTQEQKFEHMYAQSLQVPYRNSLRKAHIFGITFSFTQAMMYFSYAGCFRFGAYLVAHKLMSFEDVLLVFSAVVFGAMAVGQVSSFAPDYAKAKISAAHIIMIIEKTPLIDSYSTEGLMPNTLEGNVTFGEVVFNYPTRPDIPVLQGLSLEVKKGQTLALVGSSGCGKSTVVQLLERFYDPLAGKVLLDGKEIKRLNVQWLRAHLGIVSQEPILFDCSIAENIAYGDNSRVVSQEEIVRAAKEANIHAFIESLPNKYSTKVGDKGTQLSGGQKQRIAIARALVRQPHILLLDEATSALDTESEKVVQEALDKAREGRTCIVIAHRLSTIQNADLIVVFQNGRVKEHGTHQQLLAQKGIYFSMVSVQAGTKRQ

For `CN(C)S(=O)(=O)Nc1ccc(F)c(Oc2ccc3ncn(C)c(=O)c3c2F)c1Cl` [Example 111, N-(2-chloro-4-fluoro-3-((5-fluoro-3-methyl-4-oxo-3,4-dihydroquinazolin-6-yl)oxy)phenyl)-(N,N-dimethyl)-sulfamide], the IC50 was 12 nM in the data set on A375 cells (A375 cells (head prints A357)), 80 nM with H1755 cells (2 hours treatment) and 10 nM in [2]. For the same compound, the Permeability in data set [1] is recorded as 29 *10^−6 cm/s.

Take `CCN(C)S(=O)(=O)Nc1ccc(F)c(Oc2ccc3ncn(C)c(=O)c3c2F)c1Cl` [Example 112, N-(2-chloro-4-fluoro-3-((5-fluoro-3-methyl-4-oxo-3,4-dihydroquinazolin-6-yl)oxy)phenyl)-(N-ethyl-N-methyl)-sulfamide]: the IC50 in the data set with A375 cells (A375 cells (head prints A357)) was determined as 24 nM; in the data set with H1755 cells (2 hours treatment) it was 105 nM; in data set [2] it was 20 nM. Besides, the Permeability in [1] is 28 *10^−6 cm/s.

With `Cn1cnc2ccc(Nc3c(F)ccc(NS(=O)(=O)N4CC(F)C4)c3Cl)c(Cl)c2c1=O` [Example 126, N-(2-chloro-3-((5-chloro-3-methyl-4-oxo-3,4-dihydroquinazolin-6-yl)amino)-4-fluorophenyl)-3-fluoroazetidine-1-sulfonamide], the IC50 was 390 nM in data set [3]; over 10000 nM in data set [4]; 1.4 nM in data set [5]; 15 nM in data set [6]; 2 nM with A375 cells (setting [11]); 26 nM in the data set with H1755 cells (setting [12]). In addition, the efflux ratio at 2 h, 1 µM amounted to 2.1 at P-gp (MDR1) and 4.2 at BCRP [7]. In addition, the Papp at 2 h, 1 µM in [8] stood at 44 ×10⁻⁶ cm/s.

For `COC1CN(S(=O)(=O)Nc2ccc(F)c(Nc3ccc4ncn(C)c(=O)c4c3F)c2Cl)C1` [Example 130, N-(2-chloro-4-fluoro-3-((5-fluoro-3-methyl-4-oxo-3,4-dihydroquinazolin-6-yl)amino)phenyl)-3-methoxyazetidine-1-sulfonamide], the Kp in data set [9] lay in the range of 0.12 to 0.16. In addition, the efflux ratio at 2 h, 1 µM on P-gp (MDR1) is 2.3; at BCRP [7], 7.6. Besides, the IC50 with A375 cells (setting [11]) is 7 nM; in the data set on H1755 cells (setting [12]), 38 nM; in [2] it was 11 nM. The compound also showed an apparent permeability (Papp) at 2 h, 1 µM in [8] of 30 ×10⁻⁶ cm/s.

Turning to `COCC1CN(S(=O)(=O)Nc2ccc(F)c(Nc3ccc4ncn(C)c(=O)c4c3C)c2Cl)C1` [Example 131, N-(2-chloro-3-((3,5-dimethyl-4-oxo-3,4-dihydroquinazolin-6-yl)amino)-4-fluorophenyl)-3-(methoxymethyl)azetidine-1-sulfonamide], the Kp in data set [9] is 0.3 to 0.5. Moreover, the efflux ratio at 2 h, 1 µM at P-gp (MDR1) was determined as 2.1; at BCRP [7], 1.7. Besides, the IC50 in the data set with A375 cells (setting [11]) stood at 13 nM; in the data set with H1755 cells (setting [12]), 38 nM; in [2], 16 nM. Besides, the Papp at 2 h, 1 µM in data set [8] came out at 55 ×10⁻⁶ cm/s.

On to `CC(C)(C)c1nc(-c2cccc(NS(=O)(=O)c3c(F)cccc3F)c2F)c(-c2ccnc(N)n2)s1` [dabrafenib], for which the BCRP efflux ratio in the data set on BCRP [10] was 21.0.

In the case of `CCCS(=O)(=O)Nc1ccc(F)c(C(=O)c2c[nH]c3ncc(-c4ccc(Cl)cc4)cc23)c1F` [vemurafenib], in the data set on BCRP [10], the BCRP efflux ratio is on record as 495.
